Source: ChEMBL document CHEMBL1201862, “PubChem BioAssay data set” (2004)
Active and inactive are the calls of the source.

What was measured:
[1] = target: T1, Small ubiquitin-related modifier 1 (Homo sapiens, UniProt P63165); experiment: inhibitors of SUMO1 peptide binding, dose response, biochemical, fluorescence polarization, uHTS hits (AID 624382); type: functional; conditions: read-out: IC50_Mean
[2] = target: T2, Induced myeloid leukemia cell differentiation protein Mcl-1 (Homo sapiens, UniProt Q07820); type: functional
[3] = target: T3, Bifunctional protein GlmU (Mycobacterium tuberculosis, UniProt P9WMN3); experiment: Inhibitors of Mycobacterial Glucosamine-1-phosphate acetyl transferase (GlmU). Secondary screen.; design: species or system Mycobacterium tuberculosis H37Rv
T3 sequence (P9WMN3 whole entry): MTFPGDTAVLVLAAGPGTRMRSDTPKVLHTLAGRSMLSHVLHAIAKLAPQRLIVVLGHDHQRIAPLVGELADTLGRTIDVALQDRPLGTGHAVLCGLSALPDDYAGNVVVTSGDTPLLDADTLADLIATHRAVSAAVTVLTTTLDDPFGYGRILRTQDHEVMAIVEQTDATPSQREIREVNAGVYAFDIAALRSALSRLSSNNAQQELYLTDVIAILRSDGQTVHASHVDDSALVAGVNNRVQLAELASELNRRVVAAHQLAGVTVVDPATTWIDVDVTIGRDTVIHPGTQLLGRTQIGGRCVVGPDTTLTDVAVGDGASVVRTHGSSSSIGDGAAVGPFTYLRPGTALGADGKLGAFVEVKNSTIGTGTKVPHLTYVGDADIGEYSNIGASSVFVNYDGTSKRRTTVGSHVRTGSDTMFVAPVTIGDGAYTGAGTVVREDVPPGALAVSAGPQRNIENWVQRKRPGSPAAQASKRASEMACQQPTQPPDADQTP

[4] = target: T1, Small ubiquitin-related modifier 1; experiment: inhibitors of SUMO1 partner interactions, dose response, biochemical, FRET (AID 624383); type: functional; conditions: read-out: IC50_Mean
[5] = target: T2, Induced myeloid leukemia cell differentiation protein Mcl-1; experiment: MCL1-BIM BH3 interaction inhibitors, dose response, biochemical, fluorescence polarization, BIM-BH3 peptide, 1536-well (AID 2217)
SUMO-activating enzyme [6] = target: T4, SUMO-activating enzyme (Homo sapiens, UniProt Q9UBT2); experiment: SUMOylation inhibitor hit validation, confirmation, SUMOylation inhibitor project, biochemical, AlphaScreen (AID 2018); type: functional
SUMO-activating enzyme [7] = target: T4, SUMO-activating enzyme; experiment: inhibitors of in vitro SUMOylation cascade, primary screen, biochemical, HTRF, uHTS (AID 2006); type: protein-complex assay
INS1 = experiment: beta cell apoptosis inhibitors, cytokine rescue, dose response, luminescence, retest (AID 449756); type: functional, cell-based; conditions: Rattus norvegicus;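 note: cell death triggered by IL-1 beta plus TNF-alpha plus IFN-gamma mixture; protective hits raise ATP signal compared with cytokine alone wells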
Bcl-2-like protein 1 = Bcl-2-like protein 1 (Homo sapiens, UniProt Q07817); experiment: BCL-XL inhibitors, dose response, selectivity assay for MCL1 inhibitor project, biochemical, fluorescence polarization, 1536-well (AID 2218)
[8] = target: Ras and Rab interactor 1/Tyrosine-protein kinase ABL1 (Homo sapiens, UniProt P00519+Q13671); type: functional;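 note: biochemical TR-FRET dose-response test measuring inhibition of binding between Rin1 and Abl proteins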
[9] = P. falciparum Dd2 growth inhibitors, dose response, SYBR Green, dry powder samples, set 9 (AID 1159568); type: functional, cell-based
[10] = target: T5, Aryl hydrocarbon receptor (Homo sapiens, UniProt P35869); experiment: Luminescence-based cell-based high throughput dose response assay for activators of the Aryl Hydrocarbon Receptor (AHR). [Related pubchem assays: 2796 (Primary screen (AHR activators in singlicate)), 2845 (Confirmation screen (AHR activators in triplicate)), 434939 (Counterscreen (PXR activators in triplicate)), 2804 (Summary (AHR activators))]; type: ADME
T5 sequence (P35869 whole entry): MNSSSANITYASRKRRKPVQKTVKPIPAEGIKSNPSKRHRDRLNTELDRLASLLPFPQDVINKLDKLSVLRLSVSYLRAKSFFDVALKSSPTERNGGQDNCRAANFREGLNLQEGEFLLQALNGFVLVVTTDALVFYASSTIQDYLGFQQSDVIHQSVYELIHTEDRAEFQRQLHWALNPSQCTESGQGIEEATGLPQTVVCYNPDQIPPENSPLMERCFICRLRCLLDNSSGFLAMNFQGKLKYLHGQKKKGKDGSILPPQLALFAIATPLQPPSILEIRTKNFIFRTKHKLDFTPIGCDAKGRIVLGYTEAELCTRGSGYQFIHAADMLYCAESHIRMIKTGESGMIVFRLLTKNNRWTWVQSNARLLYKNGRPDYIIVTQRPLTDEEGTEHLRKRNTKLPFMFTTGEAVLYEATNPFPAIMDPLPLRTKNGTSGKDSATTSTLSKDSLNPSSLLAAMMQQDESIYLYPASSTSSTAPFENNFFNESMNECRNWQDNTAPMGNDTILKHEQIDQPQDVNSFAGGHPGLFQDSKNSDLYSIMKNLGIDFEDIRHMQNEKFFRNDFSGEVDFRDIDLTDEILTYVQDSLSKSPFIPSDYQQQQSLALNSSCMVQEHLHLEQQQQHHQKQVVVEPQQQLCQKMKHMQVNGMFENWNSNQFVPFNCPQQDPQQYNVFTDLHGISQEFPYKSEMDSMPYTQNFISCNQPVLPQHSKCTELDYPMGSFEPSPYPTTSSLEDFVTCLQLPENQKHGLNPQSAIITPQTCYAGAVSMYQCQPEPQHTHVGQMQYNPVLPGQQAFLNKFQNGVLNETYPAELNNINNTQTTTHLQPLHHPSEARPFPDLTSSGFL

[11] = miR-122 activators in hepatoma reporter cells, dose response, cell-based, Huh7 psiCHECK-miR122, Renilla luciferase, cherry-picked (AID 651956); type: functional;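 note: huh7 hepatoma cells stably carrying a psiCHECK-2 miR-122 sensor plasmid; renilla luciferase signal reporting endogenous miR-122 activity after 48 h compound exposure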
[12] = non-specific cell cytotoxicity, dose response, cytotoxicity control for PAX8 inhibitor project, plate reader, dry powder samples (AID 743021); type: functional, cell-based
[13] = HEK293T cytotoxicity, dose response, cytotoxicity control for miR-122 modulator project, cell-based, activator set, cherry-pick (AID 720690); type: functional;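 note: HEK293T human cells scored for general mammalian cytotoxicity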
[14] = inhibitors of PGC1a acetylation in cells, dose response, cell-based, cherry-picked samples (AID 720514); type: functional;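 note: potency may reflect raised or lowered acetylation signal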
Vero = experiment: cells; type: functional; conditions: Chlorocebus sabaeus
Paired box protein Pax-8 = Paired box protein Pax-8 (Homo sapiens, UniProt Q06710); experiment: inhibitors of PAX8-driven TPO luciferase reporter, dose response, RMG-I cells, cherry-pick (AID 687027); type: functional, cell-based;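 note: luciferase reporter driven by Pax8 target thyroperoxidase promoter measured by SteadyGlo luminescence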
Troponin, cardiac muscle = Troponin, cardiac muscle (Homo sapiens, UniProt P19429+P45379+P63316); experiment: Fluorescence-based biochemical high throughput dose response assay for activators of the calcium sensitivity of cardiac Regulated Thin Filaments (RTF). [Related pubchem assays (depositor defined):AID493008, AID493018, AID504382, AID504383]; type: protein-complex assay
[15] = HEK293T cytotoxicity, dose response, cytotoxicity control for miR-122 modulator project, cell-based, inhibitor set, cherry-pick, set 2 (AID 720697); type: functional
[16] = target: NAD-dependent protein deacylase sirtuin-5, mitochondrial (Homo sapiens, UniProt Q9NXA8); experiment: SIRT5 desuccinylase inhibitors, dose response, biochemical, fluorescence imaging, cherry-pick, set 5 (AID 720591);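 note: desuccinylation of succinyl peptide AMC substrate read as fluorescence after trypsin release; potency of inhibitors that lower fluorescence and may act on trypsin instead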
NAD-dependent protein deacylase sirtuin-5, mitochondrial, sequence (Q9NXA8 whole entry): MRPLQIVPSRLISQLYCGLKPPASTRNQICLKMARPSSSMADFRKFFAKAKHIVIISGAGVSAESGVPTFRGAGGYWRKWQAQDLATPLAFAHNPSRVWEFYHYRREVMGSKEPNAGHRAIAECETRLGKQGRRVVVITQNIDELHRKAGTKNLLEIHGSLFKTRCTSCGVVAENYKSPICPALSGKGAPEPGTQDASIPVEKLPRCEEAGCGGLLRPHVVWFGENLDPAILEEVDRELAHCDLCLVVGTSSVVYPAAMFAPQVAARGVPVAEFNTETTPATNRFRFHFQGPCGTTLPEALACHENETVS

T4 sequence (Q9UBE0 whole entry): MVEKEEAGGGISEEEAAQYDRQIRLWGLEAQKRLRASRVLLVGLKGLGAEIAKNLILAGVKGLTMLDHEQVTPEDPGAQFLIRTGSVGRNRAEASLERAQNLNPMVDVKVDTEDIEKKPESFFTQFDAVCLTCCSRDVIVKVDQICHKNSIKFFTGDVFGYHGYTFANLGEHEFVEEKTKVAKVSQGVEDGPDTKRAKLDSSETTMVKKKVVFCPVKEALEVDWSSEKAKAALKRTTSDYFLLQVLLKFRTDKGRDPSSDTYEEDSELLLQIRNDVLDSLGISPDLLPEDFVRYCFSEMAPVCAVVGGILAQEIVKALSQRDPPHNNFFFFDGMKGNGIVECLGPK
T4 sequence (Q9UBT2 whole entry): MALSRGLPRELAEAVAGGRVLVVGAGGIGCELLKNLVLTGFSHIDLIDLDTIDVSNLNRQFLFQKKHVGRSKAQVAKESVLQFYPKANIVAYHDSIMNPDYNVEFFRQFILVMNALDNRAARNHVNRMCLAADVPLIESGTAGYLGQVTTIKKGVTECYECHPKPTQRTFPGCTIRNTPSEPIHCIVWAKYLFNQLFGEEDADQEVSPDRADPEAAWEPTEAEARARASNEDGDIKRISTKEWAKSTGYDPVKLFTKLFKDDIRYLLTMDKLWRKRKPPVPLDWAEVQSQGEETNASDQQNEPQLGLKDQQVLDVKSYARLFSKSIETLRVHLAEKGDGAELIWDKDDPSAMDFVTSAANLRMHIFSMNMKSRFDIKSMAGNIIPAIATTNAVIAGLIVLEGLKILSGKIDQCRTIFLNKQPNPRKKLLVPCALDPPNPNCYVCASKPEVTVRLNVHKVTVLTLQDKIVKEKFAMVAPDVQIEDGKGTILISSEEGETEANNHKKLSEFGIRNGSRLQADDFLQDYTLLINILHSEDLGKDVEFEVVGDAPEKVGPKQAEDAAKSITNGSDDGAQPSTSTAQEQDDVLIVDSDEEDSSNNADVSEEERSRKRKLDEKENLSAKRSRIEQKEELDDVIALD
T1 sequence (P63165 whole entry): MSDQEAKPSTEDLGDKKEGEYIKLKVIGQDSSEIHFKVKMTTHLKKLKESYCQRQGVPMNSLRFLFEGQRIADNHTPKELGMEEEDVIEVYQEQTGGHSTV
T2 sequence (Q07820 whole entry): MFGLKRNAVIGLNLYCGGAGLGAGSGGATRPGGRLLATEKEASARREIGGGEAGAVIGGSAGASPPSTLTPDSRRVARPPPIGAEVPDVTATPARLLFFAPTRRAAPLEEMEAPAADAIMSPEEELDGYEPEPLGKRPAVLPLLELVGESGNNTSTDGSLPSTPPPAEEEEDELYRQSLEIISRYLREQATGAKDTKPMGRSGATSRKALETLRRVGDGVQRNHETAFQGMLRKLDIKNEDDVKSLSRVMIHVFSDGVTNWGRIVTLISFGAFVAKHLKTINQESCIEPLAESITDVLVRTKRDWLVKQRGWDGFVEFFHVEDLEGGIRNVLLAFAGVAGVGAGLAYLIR
Ras and Rab interactor 1/Tyrosine-protein kinase ABL1, sequence (P00519 whole entry): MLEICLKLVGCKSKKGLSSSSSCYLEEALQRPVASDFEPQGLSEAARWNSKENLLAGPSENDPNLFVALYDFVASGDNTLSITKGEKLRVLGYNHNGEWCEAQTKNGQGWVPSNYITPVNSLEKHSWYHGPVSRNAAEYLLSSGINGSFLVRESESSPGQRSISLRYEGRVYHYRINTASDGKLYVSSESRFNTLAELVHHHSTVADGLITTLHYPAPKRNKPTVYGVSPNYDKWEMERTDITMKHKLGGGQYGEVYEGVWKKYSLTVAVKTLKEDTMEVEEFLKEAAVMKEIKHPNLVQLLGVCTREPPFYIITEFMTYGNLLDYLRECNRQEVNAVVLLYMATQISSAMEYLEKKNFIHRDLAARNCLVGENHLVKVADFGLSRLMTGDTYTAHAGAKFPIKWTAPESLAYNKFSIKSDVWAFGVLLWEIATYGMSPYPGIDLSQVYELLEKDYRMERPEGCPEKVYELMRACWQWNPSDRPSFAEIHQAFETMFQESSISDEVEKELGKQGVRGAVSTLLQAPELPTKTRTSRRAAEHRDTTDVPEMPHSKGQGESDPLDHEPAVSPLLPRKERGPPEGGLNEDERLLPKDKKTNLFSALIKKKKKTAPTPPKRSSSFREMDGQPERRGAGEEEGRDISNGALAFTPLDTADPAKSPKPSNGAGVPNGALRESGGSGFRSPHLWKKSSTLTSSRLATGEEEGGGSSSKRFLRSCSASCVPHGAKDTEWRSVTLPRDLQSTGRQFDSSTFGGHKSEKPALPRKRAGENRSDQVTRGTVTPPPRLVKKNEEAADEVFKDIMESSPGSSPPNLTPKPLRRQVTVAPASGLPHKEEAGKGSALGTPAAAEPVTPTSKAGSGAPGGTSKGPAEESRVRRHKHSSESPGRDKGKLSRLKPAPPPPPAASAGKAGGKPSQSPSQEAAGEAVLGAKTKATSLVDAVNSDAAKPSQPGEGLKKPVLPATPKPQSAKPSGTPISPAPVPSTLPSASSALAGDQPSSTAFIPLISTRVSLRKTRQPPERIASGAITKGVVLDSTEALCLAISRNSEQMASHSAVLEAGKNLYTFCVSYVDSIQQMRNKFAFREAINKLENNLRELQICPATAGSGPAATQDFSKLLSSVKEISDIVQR
Ras and Rab interactor 1/Tyrosine-protein kinase ABL1, sequence (Q13671 whole entry): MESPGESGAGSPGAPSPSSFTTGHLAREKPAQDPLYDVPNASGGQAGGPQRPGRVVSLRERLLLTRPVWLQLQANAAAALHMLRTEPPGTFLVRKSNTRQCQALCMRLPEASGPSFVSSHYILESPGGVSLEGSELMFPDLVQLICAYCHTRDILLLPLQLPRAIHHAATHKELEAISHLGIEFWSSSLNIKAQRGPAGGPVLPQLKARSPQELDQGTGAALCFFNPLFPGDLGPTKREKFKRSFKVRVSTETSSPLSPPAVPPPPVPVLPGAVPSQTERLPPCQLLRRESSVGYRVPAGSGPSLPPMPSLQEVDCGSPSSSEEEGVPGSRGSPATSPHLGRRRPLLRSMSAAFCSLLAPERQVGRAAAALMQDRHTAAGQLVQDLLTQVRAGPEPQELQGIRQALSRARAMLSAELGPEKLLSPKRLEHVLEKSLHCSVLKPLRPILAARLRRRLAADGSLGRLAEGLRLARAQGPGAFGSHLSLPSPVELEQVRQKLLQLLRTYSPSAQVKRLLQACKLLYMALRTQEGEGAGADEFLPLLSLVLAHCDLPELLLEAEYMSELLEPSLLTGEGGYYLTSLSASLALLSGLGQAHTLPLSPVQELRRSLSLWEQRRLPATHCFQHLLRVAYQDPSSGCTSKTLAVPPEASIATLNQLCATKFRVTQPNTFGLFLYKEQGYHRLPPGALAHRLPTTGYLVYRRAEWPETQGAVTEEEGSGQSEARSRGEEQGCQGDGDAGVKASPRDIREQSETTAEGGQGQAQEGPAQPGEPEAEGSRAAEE
Bcl-2-like protein 1, sequence (Q07817 whole entry): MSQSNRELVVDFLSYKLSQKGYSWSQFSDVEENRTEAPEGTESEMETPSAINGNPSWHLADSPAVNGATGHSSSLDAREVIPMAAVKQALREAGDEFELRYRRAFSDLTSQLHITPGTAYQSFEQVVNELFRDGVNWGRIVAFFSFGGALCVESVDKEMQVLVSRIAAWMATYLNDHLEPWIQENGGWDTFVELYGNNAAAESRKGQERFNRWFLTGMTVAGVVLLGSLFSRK
Paired box protein Pax-8, sequence (Q06710 whole entry): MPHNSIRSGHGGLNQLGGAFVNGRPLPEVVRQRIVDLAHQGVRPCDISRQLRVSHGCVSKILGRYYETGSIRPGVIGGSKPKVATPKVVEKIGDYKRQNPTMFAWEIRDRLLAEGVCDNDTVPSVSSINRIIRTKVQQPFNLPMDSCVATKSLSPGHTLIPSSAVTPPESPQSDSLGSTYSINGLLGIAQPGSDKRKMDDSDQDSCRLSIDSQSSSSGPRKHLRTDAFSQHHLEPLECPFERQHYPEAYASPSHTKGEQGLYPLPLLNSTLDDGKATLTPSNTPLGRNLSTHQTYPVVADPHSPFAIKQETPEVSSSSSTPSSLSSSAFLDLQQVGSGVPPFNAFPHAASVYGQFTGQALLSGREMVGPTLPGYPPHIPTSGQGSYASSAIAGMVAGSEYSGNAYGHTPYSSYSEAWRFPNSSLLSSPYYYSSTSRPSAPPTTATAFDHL

With `COC(=O)c1cc(O)cc(OC)c1Oc1cc(C)cc(O)c1C(=O)O` [ASTERRIC ACID] the IC50 [1] was > 66.6 µM (inactive), the IC50 [2] was 2.42 µM (not active) and the IC50 [3] was 82.7 µM (active). For the same molecule, the IC50 [4] was 8.12 µM (active), the IC50 [5] was 5.48 µM (active) and the IC50 (SUMO-activating enzyme [6]) was 7.42 µM (active). For the same molecule, the IC50 (SUMO-activating enzyme [7]) was 17.7 µM (active), the AC50 (INS1) was 8.13 µM (active) and the IC50 (Bcl-2-like protein 1) was 54.2 µM (not active). The IC50 [8] was 20.7 µM (inactive).
For `Cc1ccc(S(=O)(=O)N2CC[C@H]3[C@H](CO)Nc4ccc(-c5cccc(C(=O)N(C)C)c5)cc4[C@H]32)cc1`, the AC50 [9] was 3.07 µM (active).
In the case of `COc1ccc(C(=O)Nc2cc(OC)c(NC(=O)c3ccco3)cc2OC)cc1`, the EC50 [10] is reported as 1.76 µM (active).
For `COc1ccc2c3c([nH]c2c1)[C@H](CO)N(C(C)=O)CC31CN(Cc2ccccc2Cl)C1`, the AC50 [9] was 3 µM (active).
For `Cn1ncc2c(ON=C(N)c3ccc(C(F)(F)F)cc3)ncnc21`, the AC50 [11] was 20.8 µM (active), the AC50 [12] was 66.7 µM (active) and the AC50 [13] was 14 µM (active). For the same molecule, the AC50 [14] was 4.71 µM (active), the CC50 (Vero) was 8.98 µM (active) and the AC50 (Paired box protein Pax-8) was 6.71 µM (active). The EC50 (Troponin, cardiac muscle) was > 71.5 µM (inactive) and the AC50 [15] was 9.49 µM (active).
In the case of `CCCCC[C@@H](C)N1C[C@H](COCc2ccccc2)Oc2cc(N3CCC[C@@H]3CO)ccc2S1(=O)=O`, the AC50 [16] is reported as > 30 µM (inactive).
